Measurements published in patent US20050049294A1, “Methods of using [3.2.0] heterocyclic compounds and analogs thereof” (priority 2003, published 2005).
Read-outs that look alike come from different tables or passages of the source. Peptide text beside a SMILES is read from it. * marks the point of attachment. Cbz = O=C(OCc1ccccc1)*

How the values were obtained:
[1] = system: OVCAR-3 cells; test: Cell growth inhibition (resazurin, 48 hours), OVCAR-3; type: cell-based, human; conditions: Homo sapiens, OVCAR-3, Table 13; OVCAR-3
[2] = system: RPMI 8226 cells; test: Cell growth inhibition (resazurin, 48 hours), RPMI 8226; conditions: Homo sapiens, RPMI-8226, Table 13; RPMI 8226
[3] = system: HL-60/MX2 cells; test: cells; conditions: for EC50: Homo sapiens, HL60/MX2, read-out: EC50 (nM) HL-60/MX2, Table 17
Excerpt: (§1) The DNA binding agent Mitoxantrone was included as a control, as HL-60/MX2 cells are reported to be resistant to this chemotherapeutic agent (Harker W. G. et al. 1989).

[4] = system: MDA-MB-231 cells; test: Cell growth inhibition (resazurin, 48 hours), MDA-MB-231; type: cell-based; conditions: Homo sapiens, MDA-MB-231
[5] = system: HL-60 cells; test: Cell growth inhibition (resazurin, 48 hours), HL-60
Excerpt: as §1

[6] = target: T1, chymotrypsin-like activity of rabbit muscle 20S proteasomes (Oryctolagus cuniculus, UniProt G1T4Q9); test: Inhibition of chymotrypsin-like activity of purified rabbit muscle 20S proteasome (suc-LLVY-AMC); type: biochemical
T1 sequence (G1T4Q9 1-263): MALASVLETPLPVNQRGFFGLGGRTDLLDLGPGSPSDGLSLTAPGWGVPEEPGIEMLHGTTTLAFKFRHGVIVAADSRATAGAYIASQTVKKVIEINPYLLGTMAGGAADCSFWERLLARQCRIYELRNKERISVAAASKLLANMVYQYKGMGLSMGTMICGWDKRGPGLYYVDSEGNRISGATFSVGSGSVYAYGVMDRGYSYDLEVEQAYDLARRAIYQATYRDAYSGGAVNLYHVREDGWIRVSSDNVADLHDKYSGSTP
Description: This peptide substrate is specific for the chymotrypsin-like enzyme activity of the proteasome.
Omuralide was prepared as a 10 mM stock in DMSO and stored in 5 μL aliquots at −80° C. […] The assay measures the hydrolysis of Suc-LLVY-AMC into Suc-LLVY and AMC. The released coumarin (AMC) was measured fluorometrically by using λex=390 nm and λem=460 nm. The assays were performed in a microtiter plate (Corning 3904), and followed kinetically with measurements every five minutes. The instrument used was a Thermo Lab Systems Fluoroskan, with the incubation chamber set to 37° C. The assays were performed according to the manufacturer's protocol, with the following changes. The proteasome was activated as described with SDS, and held on ice prior to the assay. […] Ten microliters of each dose were added in triplicate to the assay plate, and 190 μL of the activated proteasome was added and mixed. The samples were pre-incubated in the Fluoroskan for 5 minutes at 37° C. Substrate was added and the kinetics of AMC were followed for one hour.

[7] = target: T2, trypsin-like activity of purified rabbit 20S proteasomes (Oryctolagus cuniculus, UniProt G1SWK8); test: biochemical
T2 sequence (G1SWK8 1-271): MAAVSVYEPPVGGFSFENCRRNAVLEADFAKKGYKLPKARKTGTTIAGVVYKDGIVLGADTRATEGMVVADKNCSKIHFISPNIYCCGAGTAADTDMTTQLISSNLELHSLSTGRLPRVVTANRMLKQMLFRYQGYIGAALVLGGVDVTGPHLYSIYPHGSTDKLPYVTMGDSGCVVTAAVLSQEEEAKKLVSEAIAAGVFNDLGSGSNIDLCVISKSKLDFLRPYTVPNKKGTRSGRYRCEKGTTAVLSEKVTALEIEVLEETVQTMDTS

[8] = target: PGPH (caspase-like) activity of rabbit muscle 20S proteasomes (Oryctolagus cuniculus, UniProt A0A5F9DQW2); test: Inhibition of caspase-like (PGPH) activity of 20S proteasome (Z-LLE-AMC); type: biochemical; conditions: Table 3; mean EC50; purified rabbit 20S proteasomes
Description: A commercially available fluorogenic substrate specific for the PGPH activity was used instead of the chymotrypsin substrate supplied in the proteasome assay kit described above.
The substrate Z-LLE-AMC was prepared as a 20 mM stock solution in DMSO, stored at −20° C. The source of the proteasomes was the commercially available kit from Calbiochem (Cat. #539158). As with the chymotrypsin substrate, the proteasome can cleave Z-LLE-AMC into Z-LLE and free AMC. The activity can then be determined by measuring the fluorescence of the released AMC (λex=390 nm and λem=460 nm). The proteasomes were activated with SDS and held on ice as per manufacturer's recommendation. […] The series was diluted 20-fold with assay buffer and preincubated with the proteasomes as described for the chymotrypsin-like activity. After addition of substrate, the samples were incubated at 37° C., and release of the fluorescent AMC was monitored in a fluorimeter. All data were collected and plotted as the mean of triplicate points. […] As before, the model chosen was a sigmoidal dose-response, with a variable slope.

[9] = system: MES-SA/Dx5 cells; test: cells; conditions: Homo sapiens, MES-SA/Dx5, read-out: EC50 (nM) MES-SA/Dx5, Table 16
[10] = system: U266 cells; test: Cell growth inhibition (resazurin, 48 hours), U266; conditions: Homo sapiens, U-266, Table 13; U266
[11] = system: PC-3 cells; test: Cell growth inhibition (resazurin, 48 hours), PC-3; type: cell-based, human; conditions: Homo sapiens, PC-3
[12] = system: LeTx-induced cytotoxicity of RAW264.7 cells; test: cells; conditions: Mus musculus, RAW264.7, read-out: EC50 (nM), inhibition of RAW 264.7 cell cytotoxicity mediated by anthrax lethal toxin
[13] = system: MES-SA cells; test: Cell growth inhibition (resazurin, 48 hours), MES-SA; conditions: Homo sapiens, MES-SA, read-out: EC50 (nM) MES-SA, Table 16
[14] = target: T2, trypsin-like activity of purified rabbit 20S proteasomes; conditions: under the conditions tested
[15] = system: HT-29 cells; test: Cell growth inhibition (resazurin, 48 hours), HT-29; type: cell-based; conditions: Homo sapiens, HT-29
[16] = system: NCI-H292 cells; test: Cell growth inhibition (resazurin, 48 hours), NCI-H292; type: cell-based, human; conditions: Homo sapiens, NCI-H292, Table 13; NCI-H292
[17] = system: B16-F10 cells; test: Cell growth inhibition (resazurin, 48 hours), B16-F10; type: cell-based, mouse; conditions: Mus musculus, B16-F10, Table 13; B16-F10
[18] = system: NF-κB-mediated luciferase activity in HEK293 NF-κB/Luc cells; test: NF-κB-mediated luciferase reporter gene assay; type: cell-based, human; conditions: pretreatment of NF-κB/Luc 293 cells
Description: (§2) The HEK293 NF-κB/luciferase reporter cell line is a derivative of the human embryonic kidney cell line (ATCC; CRL- 1573) and carries a luciferase reporter gene under the regulation of 5×NF-κB binding sites. […] When performing the luciferase assay, the DMEM basal medium was replaced with phenol-red free DMEM basal medium and the G418 was omitted.
For NF-κB-mediated luciferase assays, HEK293 NF-κB/luciferase cells were seeded at 1.5×10^4 cells/well in 90 μl phenol-red free DMEM complete medium into Corning 3917 white opaque-bottom tissue culture plates. […] This dilution series was further diluted 40× in appropriate culture medium and ten μl aliquots were added to the test wells in triplicate resulting in final test concentrations ranging from 1 μM to 320 pM. […] For Formula II-19, a 127 μM starting dilution was made in 100% DMSO and the final test concentrations ranging from 317 nM to 0.1 nM. […] After 1 hr pretreatment, 10 μl of a 50 ng/ml TNF-α solution, prepared in the phenol-red free DMEM medium was added, and the plates were incubated for an additional 6 hr.
NF-κB inducible luciferase activity was measured at 6 hours.
as §2, with “CRL-1573)” for “CRL- 1573)”
For NF-κB-mediated luciferase assays, HEK293 NF-κB/luciferase cells were seeded at 1.5×10^4 cells/well in 90 μl phenol-red free DMEM complete medium into Corning 3917 white opaque-bottom tissue culture plates. For Formula II-2, Formula II-4 and Formula II-5A, a 400 μM starting dilution was made in 100% DMSO and this dilution was used to generate a 8-point half log dilution series. This dilution series was further diluted 40× in appropriate culture medium and ten μl aliquots were added to the test wells in triplicate resulting in final test concentrations ranging from 1 μM to 320 pM. […] After 1 hr pretreatment, 10 μl of a 50 ng/ml TNF-α solution, prepared in the phenol-red free DMEM medium was added, and the plates were incubated for an additional 6 hr.
The relative luciferase units (RLU) were measured by using a Fusion microplate fluorometer (Packard Bioscience).

[19] = system: LeTx-induced cytotoxicity of RAW264.7 cells; conditions: read-out: EC50 concentrations in the LeTx assay; cited from earlier work
[20] = system: Jurkat cells; test: Cytotoxicity against Jurkat cells; type: cell-based, human; conditions: Table 5, Jurkat Cells
[21] = system: LeTx-induced cytotoxicity of RAW264.7 cells; conditions: 1 μM
[22] = Homo sapiens, HL-60, read-out: EC50 (nM) HL-60, Table 17

PGPH (caspase-like) activity of rabbit muscle 20S proteasomes, sequence (A0A5F9DQW2 1-212): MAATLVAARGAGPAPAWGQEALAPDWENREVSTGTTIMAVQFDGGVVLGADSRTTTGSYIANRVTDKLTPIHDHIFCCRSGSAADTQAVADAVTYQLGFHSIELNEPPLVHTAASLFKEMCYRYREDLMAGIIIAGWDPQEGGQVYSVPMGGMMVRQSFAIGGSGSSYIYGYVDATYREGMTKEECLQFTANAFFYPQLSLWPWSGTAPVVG

Compound | EC50 [1] [µM] | EC50 [3] [nM] | EC50 [4] [µM] | EC50 [5, 22] [nM] | EC50 [7] [µM] | EC50 [9] [nM] | EC50 [11] [µM] | EC50 [12] [nM] | EC50 [13] [nM] | inhibit the trypsin-like activity of the 20S proteasome [14] | EC50 [15] [µM] | EC50 [16] [µM] | EC50 [19] [µM] | other results
CC[C@H]1C(=O)N[C@@]2([C@@H](O)C3CCCCC3)C(=O)O[C@@]12C [Formula II-3] | > 20 | > 20000 | > 20 | > 20000 | 6.6 | > 20000 | > 20 | > 330 | > 20000 | able to inhibit | > 20 | > 20 |  | EC50 [2]: > 20 µM; EC50 ([6]; Table 3, mean EC50, purified rabbit 20S proteasomes, read-out: EC50 Values, Chymotrypsin-like): 0.927 µM; EC50 ([6]; representative experiment, Example 44 (FIG. 46, 47), read-out: EC50, chymotrypsin-like activity of the proteasome): 0.89 µM; EC50 [8]: > 20 µM; EC50 [10]: > 20 µM; EC50 [17]: > 20 µM
CC[C@H]1C(=O)N[C@@]2([C@@H](O)[C@@H]3C=CCCC3)C(=O)O[C@@]12C [Formula II-17] | > 20 | > 20000 | 5.9 ± 0.601 | > 20000 | 0.588 | 9450 | > 20 | 42 | 9230 | able to inhibit | > 20 | > 20 |  | luciferase activity upon TNF-α stimulation [18]: dose-dependent decrease
CC(=O)N[C@@H](CSC(=O)[C@]1([C@@H](O)C(C)C)NC(=O)[C@H](C)[C@@H]1O)C(=O)O [Lactacystin] |  |  |  |  |  |  |  |  |  |  |  |  | 3 | 
CC(C)C[C@@H](C=O)NC(=O)[C@H](CC(C)C)NC(=O)[C@H](CC(C)C)NC(=O)OCc1ccccc1 [MG132] (Cbz-Leu-Leu-Leu-aldehyde) |  |  |  |  |  |  |  |  |  |  |  |  | 3 | 
O=C1c2c(O)ccc(O)c2C(=O)c2c(NCCNCCO)ccc(NCCNCCO)c21 [Mitoxantrone, reference compound] |  | 1340 |  | 42 |  |  |  |  |  |  |  |  |  | Fold change ([3]; Table 17, ratio of EC50 values (HL-60/MX2:HL-60)): 30.6 fold; EC50 ([5]; read-out: EC50 (nM) HL-60, Table 17): 40 nM; EC50 ([20]; Homo sapiens, read-out: EC50): 0.05 µM; % max cell kill [20]: 99%
CC(C)[C@H](O)[C@@]12NC(=O)[C@H](C)[C@@H]1OC2=O [Omuralide, reference compound] |  |  |  |  |  |  |  |  |  |  |  |  |  | EC50 ([6]; Calbiochem 20S Proteasome Kit, Example 21, read-out: average EC50 in the two assays, chymotrypsin-like activity): 0.052 µM; EC50 ([6]; first experiment, Example 21, read-out: EC50, average value in the 20S proteasome assay (FIG. 27)): 0.049 µM; viability, compound + LeTx [21]: 37%
